PubChem BioAssay (NCI)
“And” between values parts separate entries of the source, which are not always exact repeats. Equal entries are not always repeated.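 The compound was tested at five concentrations on cells cultured in 96-well plates, with a 48-hour exposure period. Abbreviation: GI50, concentration required for 50% inhibition of growth. The concentration for full growth arrest is given as TGI.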

Experiments:
Test in all cases: NCI tumour cell line growth inhibition, 48 h
SF-268 CNS = tested on: SF-268 CNS
A498 renal = tested on: A498 renal
RPMI-8226 leukemia = tested on: RPMI-8226 leukemia
SF-295 CNS = tested on: SF-295 CNS
OVCAR-3 ovarian = tested on: OVCAR-3 ovarian
T-47D breast = tested on: T-47D breast
M14 melanoma = tested on: M14 melanoma
SK-MEL-5 melanoma = tested on: SK-MEL-5 melanoma
U251 CNS = tested on: U251 CNS
786-0 renal = tested on: 786-0 renal

SMILES	GI50 (SF-268 CNS)	TGI (SF-268 CNS)	GI50 (A498 renal) [µM]	TGI (A498 renal) [µM]	GI50 (RPMI-8226 leukemia)	TGI (RPMI-8226 leukemia)	GI50 (SF-295 CNS)	TGI (SF-295 CNS)	GI50 (OVCAR-3 ovarian)	TGI (OVCAR-3 ovarian)	GI50 (T-47D breast)	TGI (T-47D breast)	GI50 (M14 melanoma)	TGI (M14 melanoma)	GI50 (SK-MEL-5 melanoma)	TGI (SK-MEL-5 melanoma)	GI50 (U251 CNS)	TGI (U251 CNS)	GI50 (786-0 renal)	TGI (786-0 renal)
C=CC(=O)NCc1cccc(Nc2ncc(Br)c(NCCCNC(=O)C3CCC3)n2)c1	0.297 µM and 0.296 µM	2.57 µM and 4.07 µM	0.549	2.08	1.92 µM and 1.88 µM	8.19 µM and > 25 µM	1.1 µM and 1.32 µM	8.36 µM and 16.8 µM	1.57 µM and 1.18 µM	4.78 µM and 8.16 µM	4.86 µM and 5.07 µM	12.5 µM and 22.5 µM	1.86 µM and 1.19 µM	10.2 µM and 5.91 µM	2.23 µM and 1.87 µM	5.35 µM and 5.81 µM	0.665 µM and 0.591 µM	12.5 µM and 5.94 µM	1.29 µM and 1.26 µM	6.16 µM and > 25 µM
CN(C)CCNC(=O)C(C)(C)Oc1ccc(C(=O)c2ccc(Cl)cc2)cc1Cl	–	28.7 µM	–	30.7	3.32 µM	> 48.7 µM	4.74 µM	22.6 µM	–	25.7 µM	5.87 µM	24.4 µM	1.82 µM	3.67 µM and 5.99 µM	1.53 µM	6.11 µM and 2.97 µM	–	20 µM	3.37 µM	13.6 µM
CCCCCCCCN(CCCCCCCC)CCCCCCNc1cc(OC)cc2cccnc12	12.7 µM	30 µM	15.6	30.5	7.75 µM	75.4 µM	14 µM	29.3 µM	2.01 µM	4.09 µM	12.1 µM	27.5 µM	3.33 µM	12.4 µM	8.53 µM	21.1 µM	11.9 µM	27 µM	14.6 µM	28.4 µM
CC1(C)CCC2=C(O1)c1ccccc1C(=O)C2=O	1.44 µM	3.32 µM and 1.83 µM	–	11.3	1.46 µM	5.76 µM and 1.48 µM	1.67 µM	3.1 µM and 1.68 µM	1.31 µM	2.9 µM and 0.698 µM	1.49 µM	4.4 µM and 1.87 µM	1.69 µM	3.31 µM and 0.801 µM	1.01 µM	2.19 µM and 0.714 µM	1.49 µM	2.95 µM and 1.13 µM	1.99 µM	3.94 µM and 2.68 µM
Cc1ccc(-c2cc3c(SCC(=O)Nc4cc(C(F)(F)F)ccc4Cl)nccn3n2)cc1	79.4 µM	> 100 µM	> 100	> 100	> 100 µM	> 100 µM	> 100 µM	> 100 µM	> 100 µM	> 100 µM	23.6 µM	> 100 µM	> 100 µM	> 100 µM	> 100 µM	> 100 µM	3.4 µM	> 100 µM	10.1 µM	87.2 µM
CN(Cc1cc(Br)cc(Br)c1O)Cc1cc(Br)cc(Br)c1O	2.87 µM	21.1 µM	4.08	18.7	2.77 µM	47.9 µM	0.847 µM	11.9 µM	1.42 µM	11.2 µM	2.27 µM	23.6 µM	1.69 µM	15.6 µM	1.34 µM	3.71 µM	0.689 µM	13.3 µM	1.42 µM	14.6 µM
COc1cc(-c2nc3ccccc3s2)ccc1NC(=O)COc1ccc(Cl)cc1	3.02 µM	50.4 µM	44.5	> 100	11.8 µM	> 100 µM	3.35 µM	25.1 µM	6.8 µM	> 100 µM	4.42 µM	> 100 µM	8.54 µM	> 100 µM	8.68 µM	> 100 µM	2.23 µM	6.8 µM	1.96 µM	4 µM
C[C@]12CC[C@H](O)C[C@H]1CC[C@@H]1[C@@H]2CC[C@]2(C)[C@@H](C3=CC(=O)OC3)[C@@H](O)C[C@]12O	–	2.55 µM	–	9.07	–	8.07 µM	–	10.9 µM	–	1.73 µM	–	> 40.7 µM	–	5.58 µM	–	3.2 µM	–	5.08 µM	–	2.36 µM
COC1CCN(C(=O)c2cc(Cc3n[nH]c(=O)c4ccccc34)ccc2F)CC1	58.3 µM	> 100 µM	> 41.2	> 100	60.9 µM	> 100 µM	24.2 µM	> 100 µM	74.1 µM	> 100 µM	53.6 µM	> 100 µM	> 90.9 µM	> 100 µM	32 µM	> 100 µM	> 55.3 µM	> 100 µM	> 100 µM	> 100 µM
Cc1ccc(C(SCC(N)C(=O)O)(c2ccc(C)cc2)c2ccc(C)cc2)cc1 (stereo unspecified)	1.89 µM	19.5 µM	4.04	14.6	2.27 µM	12.5 µM	1.29 µM	10.3 µM	2.22 µM	7.39 µM	3.5 µM	21.9 µM	0.729 µM	2.37 µM	0.907 µM	14.7 µM	1.71 µM	16.8 µM	4.93 µM	30.1 µM
CS(=O)(=O)Nc1ccc(-c2cc(-c3ccccc3)cc(C(N)=O)c2N)cc1	> 25 µM	> 25 µM	> 20.5	> 25	18.4 µM	> 25 µM	24.6 µM	> 25 µM	> 23.8 µM	> 25 µM	> 21.5 µM	> 25 µM	> 25 µM	> 25 µM	15.6 µM	> 25 µM	> 25 µM	> 25 µM	> 25 µM	> 25 µM
NC(=O)c1ccc(NN=O)nc1	–	> 100 µM	–	> 100	> 100 µM	> 100 µM	–	> 100 µM	–	> 100 µM	–	> 100 µM	–	> 100 µM	–	> 100 µM	–	> 100 µM	–	> 100 µM
O=C1c2ccccc2S(=O)(=O)N1CSC(=S)N1CCCCC1	> 100 µM	> 100 µM	> 100	> 100	0.205 µM	0.607 µM	> 100 µM	> 100 µM	> 100 µM	> 100 µM	> 100 µM	> 100 µM	> 100 µM	> 100 µM	33.2 µM	> 100 µM	> 100 µM	> 100 µM	> 100 µM	> 100 µM
